# Laboratory results reported in the supplement of paper PMC10307832.
# Tests used:
# Assay in all cases: relative viability (nuclei count vs DMSO), 5 days (fraction); higher = more cells survive
# RU-SKI 43 = compound: CC[C@@H](C)CNCC(=O)N1CCC2=C([C@@H]1COC3=CC=CC(=C3)C)C=CS2 [RU-SKI 43]
# In short: (§1)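 Nuclei counted with MetaXpress define viability as the ratio of treated to vehicle wells, given as a median across plates. The lung cancer cell lines were in 1536-well plates, pinned with five √10-spaced library-drug doses and imaged at 4× after 5 days and Hoechst staining. Plates passed with control CV below 25% and at least one doubling.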
# Irinotecan = compound: CCc1c2c(nc3ccc(OC(=O)N4CCC(N5CCCCC5)CC4)cc13)-c1cc3c(c(=O)n1C2)COC(=O)[C@]3(O)CC [Irinotecan]
# In short: as §1
# MK-8033 = compound: Cn1cc(-c2cnc3ccc4ccc(CS(=O)(=O)NCc5ccccn5)cc4c(=O)c3c2)cn1 [MK-8033]
# In short: as §1
Cell Line,relative viability (RU-SKI 43; 0.1 µM),relative viability (RU-SKI 43; 0.3162 µM),relative viability (RU-SKI 43; 1 µM),relative viability (RU-SKI 43; 3.162 µM),relative viability (RU-SKI 43; 10 µM),relative viability (Irinotecan; 0.6325 µM),relative viability (Irinotecan; 2 µM),relative viability (Irinotecan; 6.325 µM),relative viability (Irinotecan; 20 µM),relative viability (MK-8033; 0.02 µM),relative viability (MK-8033; 0.06325 µM),relative viability (MK-8033; 0.2 µM),relative viability (MK-8033; 0.6325 µM),relative viability (MK-8033; 2 µM)
NCI-H2023,1.06,1.47,1.11,1.1,0.905,0.881,0.829,0.217,0.0696,0.941,0.88,0.838,0.846,0.715
PC-14,1.01,1.15,1.2,1.01,0.953,0.72,0.876,0.29,0.185,1.01,0.83,0.888,0.95,0.938
NCI-H1734,0.961,1.05,1.03,1.07,0.88,,0.77,0.195,0.181,1.1,0.845,0.944,0.993,0.985
NCI-H727,0.838,0.989,1.08,1.1,0.811,0.516,0.565,0.531,0.54,0.877,0.691,0.911,1.13,0.97
HOP-62,1.05,0.986,1.11,1.09,1.09,0.558,0.714,0.194,0.2,1,0.976,0.98,0.989,0.973
NCI-H2405,0.996,0.977,1.05,0.96,0.967,,0.953,0.426,0.217,1.02,0.944,0.94,1.02,1.01
NCI-H2342,0.895,0.773,0.972,1.18,0.989,0.938,0.97,1,0.575,0.988,1.11,1.12,1.13,1.13
A-427,1.09,1.02,1.12,0.94,1.03,,0.844,0.299,0.21,1.05,0.963,0.877,1.06,0.96
LCLC-97TM1,1.13,0.972,1.05,0.973,0.838,0.39,0.454,0.173,0.167,1.05,0.927,0.795,0.999,0.975
NCI-H3122,1.06,1.15,1.08,1.09,0.983,0.97,0.625,0.224,0.176,0.981,1.03,0.931,0.985,1.01
RERF-LC-KJ,1.04,1.12,1.05,1.01,0.937,0.871,0.839,0.542,0.373,0.999,1.01,0.934,1.01,0.948
NCI-H2170,0.977,1.06,1.01,1.04,0.986,0.959,0.946,0.462,0.223,0.991,0.925,0.918,0.948,0.971
ABC-1,1.06,0.985,1.33,0.984,0.85,,0.956,0.496,0.21,0.972,0.861,0.886,0.965,1.04
HCC-44,1.05,0.972,1.09,0.933,0.969,0.718,0.915,0.409,0.331,1.05,1.02,0.949,1.01,0.957
HCC-15,1.07,1.09,1.11,1.11,0.993,0.444,0.684,0.241,0.182,1.05,0.968,0.86,1.02,0.999
NCI-H522,1.02,1.05,1.16,0.982,1.17,0.694,0.844,0.52,0.639,0.983,0.793,0.954,1.05,0.959
